# Article PMC6547440, “The HRP3 PWWP domain recognizes the minor groove of double-stranded DNA and recruits HRP3 to chromatin” (Nucleic Acids Research, 2019)
# No end group written: not given here. Me3 = trimethyl-lysine (Lys side chain trimethylated); Me2 = dimethyl-lysine (Lys side chain dimethylated)
# B1: 16-mer-random (dsDNA)
# DNA 1: CAGGCTGGTCTTGAAC
# DNA 2: GTTCAAGACCAGCCTG
# B2: H3K36me2 histone peptide (H3 residues 29–41) (peptide, UniProt P68431 30-42, looked up)
# peptide: APATGGVK(Me2)KPHRY
# notes: histone H3, residues 29-41; also called H3K36me2-containing peptide
# B3: H3K36me3 histone peptide (H3 residues 29–41) (peptide, UniProt P68431 30-42, looked up)
# peptide: APATGGVK(Me3)KPHRY
# notes: histone H3, residues 29-41; also called H3K36me3 peptide; H3K36me3-containing peptide
# B4: 16-mer-GC (dsDNA)
# DNA 1: GCGCGCGCGCGCGCGC
# DNA 2: GCGCGCGCGCGCGCGC
# B5: 16-mer-TA (dsDNA)
# DNA 1: TATATATATATATATA
# DNA 2: TATATATATATATATA
# How the values were obtained:
# [1] = test system: HRP3 PWWP; experiment: DNA geometry analysis of the PWWP/DNA complex structures; set-up: species or system human
# Experimental: DNA geometry was analysed with the 3DNA ([42]) and Curves+ ([43]) programs. Electrostatic potentials were calculated using the DelPhi program ([44]). The minor groove width was measured according to the method described ([45]). In detail, the distances between the ith (i indicates the number of the base from one chain) phosphate atom from one chain and the (i + 4)th atom from the paired chain were used to describe the minor groove width at the ith base. Electrostatic potentials were calculated at the midpoints between the above phosphate atom pairs used to calculate the minor groove widths.
# [2] = target: T1, HRP3 PWWP WT (Homo sapiens, UniProt Q9Y3E1); experiment: NMR titration of H3K36 peptides with wild-type HRP3 PWWP; type: binding; conditions: 15N-labelled HRP3 PWWP (1–110) WT, H3 residues 29–41, 20 mM PBS pH 6.9, 20 mM NaCl, 2 mM DTT, 298 K
# T1 construct: using ^15N-labelled HRP3 PWWP (residues 1–110) dissolved in buffer; 6xHis-SUMO (cleaved yes); made in house; host or cells: Escherichia coli Rosetta (DE3)
# T1 sequence (Q9Y3E1 1-110): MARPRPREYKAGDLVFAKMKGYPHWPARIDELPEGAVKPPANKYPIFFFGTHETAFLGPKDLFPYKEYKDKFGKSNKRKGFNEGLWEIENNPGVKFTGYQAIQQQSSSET
# Experimental: (§1) All 2D ^1H-^15N HSQC NMR spectra were collected on the Bruker Avance III HD 600 MHz and 800 MHz spectrometers at 298 K. The NMR data were processed by NMRPipe ([39]) and analysed by KUJIRA ([40]) running with NMRview ([41]) softwares. Chemical shift perturbation experiments were carried out using ^15N-labelled HRP3 PWWP (residues 1–110) dissolved in buffer containing 20 mM PBS at pH 6.9, 20 mM NaCl and 2 mM DTT. A series of 2D ^1H-^15N HSQC spectra were recorded at HRP3 PWWP:H3K36me3/2/1/0 (residues 29–41) molar ratios of 1:0, 1:0.5, 1:1.5, 1:4, 1:6, 1:10, 1:15 and 1:20, respectively. The combined chemical shift perturbation was calculated using the following equation: Δδ = [(Δδ^1H)^2 + (Δδ^15N/5)^2]^1/2. Dissociation constants were calculated by fitting the data to a single-site ligand-binding model (SigmaPlot).
# [3] = test system: H3K36me3 peptide; experiment: NMR titration, loss of H3K36me3 peptide binding of HRP3 PWWP mutants; conditions: versus wild-type
# Experimental: as §1
# [4] = test system: chromatin of HepG2 cells; experiment: Subcellular fractionation, chromatin binding of GFP-HRP3 variants in HepG2 cells; type: cell-based, human; conditions: cellular fractionation, western blot anti-GFP
# Experimental: (§2) HepG2 (ATCC HB-8065) and HEK293T human embryonic kidney cells (ATCC #CRL-11268) were cultured in Dulbecco’s modified Eagle’s medium supplemented with 10% FBS. Stable overexpression of wild-type or mutant HRP3 in HepG2 cells was performed using FUGW lentiviral constructs expressing wild-type or mutant HRP3. Lentiviral vector infections ([47]) and plasmid transfections ([48]) were performed as previously described. Overexpression efficiency was determined by western blot.
# Cellular fractionations were performed using a Subcellular Fractionation Kit (Thermo Scientific, cat. 78840) according to the manufacturer’s protocol. A total of 1 × 10^6 cells were used for each cell line’s fractionation. Soluble nuclear contents and chromatin-bound nuclear contents were analysed by western blotting using anti-GFP (gta-20, Chromo-Tek) and anti-histone H3 (4499S, CST) antibodies.
# [5] = test system: chromatin of HepG2 cells; experiment: ChIP-Seq of GFP-HRP3 variants in HepG2 cells; type: cell-based, human; conditions: ChIP-Seq with GFP antibody, HepG2, two biological replicates combined
# Experimental: as §2
# For chromatin immunoprecipitation, HepG2 cells were cross-linked with 1% formaldehyde at 37°C for 10 min and quenched with 0.125 M glycine for 5 min at room temperature. ChIP was performed using a ChIP assay kit (Millipore) according to the manufacturer’s protocol. Antibodies used for ChIP were GFP (gta-20, Chromo-Tek) and H3K36me3 (ab9050, abcam).
# ChIP-Seq data were aligned to human genome hg19 using Bowtie 1.0 allowing one mismatch. Two biological replicates were performed and combined for the analysis. Analysis was performed using the Galaxy ([49]) and Cistrome ([50]) Platform and via custom R scripts for Bioconductor ([51]). Peak calling was performed using MACS2. Promoter definitions were downloaded from the UCSC browser ([52]). DNase I hypersensitivity and MNase-Seq data from ENCODE (GSM816662, GSM920557) ([53]) were used.
# [6] = target: HRP3 PWWP (1-110) WT (UniProt Q9Y3E1 1-110); experiment: MST; MST: 50 mM KCl, 10 mM Na cacodylate pH 6.5, 2 mM DTT, 200 nM FAM-dsDNA; ITC: 10 mM PBS pH 7.0, 50 mM NaCl, 2 mM b-ME, 20 C; nucleosome EMSA: 20 mM Tris pH 7.5; conditions: protein: recombinant, tags: none (His-SUMO removed), label: 5'-FAM (MST), blunt
# Chain of HRP3 PWWP (1-110) WT (Q9Y3E1 1-110): as above
# [7] = target: T2, HRP3 PWWP domain (residues 1–110) (human, UniProt Q9Y3E1 1-110); experiment: NMR titration; 2D 1H-15N HSQC chemical shift perturbation of 15N-labelled HRP3 PWWP (1–110); H3 peptide (29–41) added to molar ratios 1:0 to 1:20; 298 K; 20 mM PBS pH 6.9, 20 mM NaCl, 2 mM DTT; single-site ligand-binding fit; conditions: both partners purified
# T2 construct: HDGF-related protein 3 (HRP3, HDGFL3), human, residues 1-110 holding the PWWP domain; His-SUMO tag removed by ULP1 protease; also called HRP3 PWWP (1–110); HRP3(1-110); source: E. coli Rosetta (DE3), purified (nickel column, gel filtration), 15N-labelled
# T2 sequence (Q9Y3E1 1-110): as above
# [8] = target: T3, HRP3 PWWP domain (residues 1–110) Y22A (human, UniProt Q9Y3E1 1-110, Y22A); experiment: as above; conditions: both partners purified
# T3 construct: HDGF-related protein 3 (HRP3, HDGFL3), human, residues 1-110 holding the PWWP domain, aromatic cage mutant; they are not repeated for the mutants; source: E. coli Rosetta (DE3), purified (nickel column, gel filtration), 15N-labelled
# T3 sequence (Q9Y3E1 1-110 Y22A): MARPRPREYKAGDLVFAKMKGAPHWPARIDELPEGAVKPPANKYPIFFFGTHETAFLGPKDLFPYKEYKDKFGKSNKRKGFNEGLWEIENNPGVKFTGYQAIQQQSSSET
# [9] = target: T4, HRP3 PWWP domain (residues 1–110) E53A (human, UniProt Q9Y3E1 1-110, E53A); experiment: as above; conditions: both partners purified
# T4 construct: HDGF-related protein 3 (HRP3, HDGFL3), human, residues 1-110 holding the PWWP domain; they are not repeated for the mutants; source: E. coli Rosetta (DE3), purified (nickel column, gel filtration), 15N-labelled
# T4 sequence (Q9Y3E1 1-110 E53A): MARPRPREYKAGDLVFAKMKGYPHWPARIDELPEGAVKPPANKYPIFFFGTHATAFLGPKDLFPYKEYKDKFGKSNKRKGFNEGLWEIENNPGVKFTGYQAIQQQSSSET
# [10] = target: T5, HRP3 PWWP domain (residues 1–110) F48A (human, UniProt Q9Y3E1 1-110, F48A); experiment: as above; conditions: both partners purified
# T5 construct: HDGF-related protein 3 (HRP3, HDGFL3), human, residues 1-110 holding the PWWP domain, aromatic cage mutant; they are not repeated for the mutants; source: E. coli Rosetta (DE3), purified (nickel column, gel filtration), 15N-labelled
# T5 sequence (Q9Y3E1 1-110 F48A): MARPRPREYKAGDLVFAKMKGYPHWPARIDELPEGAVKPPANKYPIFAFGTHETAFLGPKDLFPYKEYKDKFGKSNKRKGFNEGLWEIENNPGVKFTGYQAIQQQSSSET
# [11] = target: HRP3 PWWP K18A/N76A/R78A (KNR-A) (UniProt Q9Y3E1 1-110, K18A;N76A;R78A); experiment: MST; MST: 50 mM KCl, 10 mM Na cacodylate pH 6.5, 2 mM DTT, 200 nM FAM-dsDNA; ITC: 10 mM PBS pH 7.0, 50 mM NaCl, 2 mM b-ME, 20 C; nucleosome EMSA: 20 mM Tris pH 7.5; conditions: protein: recombinant; tags: none (His-SUMO removed); label: 5'-FAM (MST); blunt; self-complementary
# Chain of HRP3 PWWP K18A/N76A/R78A (KNR-A) (Q9Y3E1 1-110 K18A/N76A/R78A): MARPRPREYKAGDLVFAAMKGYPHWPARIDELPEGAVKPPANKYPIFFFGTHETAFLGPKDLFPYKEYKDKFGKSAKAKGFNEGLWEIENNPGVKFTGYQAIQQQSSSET
# [12] = target: HRP3 PWWP N76A (UniProt Q9Y3E1 1-110, N76A); experiment: MST; affinity unchanged vs WT; MST: 50 mM KCl, 10 mM Na cacodylate pH 6.5, 2 mM DTT, 200 nM FAM-dsDNA; ITC: 10 mM PBS pH 7.0, 50 mM NaCl, 2 mM b-ME, 20 C; nucleosome EMSA: 20 mM Tris pH 7.5; conditions: protein: recombinant; tags: none (His-SUMO removed); label: 5'-FAM (MST); blunt; self-complementary
# Chain of HRP3 PWWP N76A (Q9Y3E1 1-110 N76A): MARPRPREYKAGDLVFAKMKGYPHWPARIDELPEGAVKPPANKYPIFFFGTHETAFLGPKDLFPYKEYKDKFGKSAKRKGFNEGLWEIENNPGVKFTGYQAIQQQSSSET
molecule,measurement,setting,value
5′-GCGCGCGCGC-3′ [10-mer-GC],average helical twist,[1]; 3DNA,35.3 °
same,average propeller twist,[1]; 3DNA,−7.3 °
same,bending angle towards the minor groove per 6 bps,[1]; Curve+ software,3.4 °
same,narrowing of minor groove upon PWWP binding,[1]; crystal structure of complex,~2.7 Å
same,"width of the minor groove, PWWP-binding region",[1]; crystal structure of complex,10.5 Å
same,"width of the minor groove, PWWP-free region",[1]; crystal structure of complex,13.2 Å
CC(C)[C@H](NC(=O)CNC(=O)CNC(=O)[C@@H](NC(=O)[C@H](C)NC(=O)[C@@H]1CCCN1C(=O)[C@H](C)N)[C@@H](C)O)C(=O)N[C@@H](CCCCN)C(=O)N[C@@H](CCCCN)C(=O)N1CCC[C@H]1C(=O)N[C@@H](Cc1c[nH]cn1)C(=O)N[C@@H](CCCNC(=N)N)C(=O)N[C@@H](Cc1ccc(O)cc1)C(=O)O [H3K36me0],Kd,[2],4700 ± 1200 µM
CNCCCC[C@H](NC(=O)[C@@H](NC(=O)CNC(=O)CNC(=O)[C@@H](NC(=O)[C@H](C)NC(=O)[C@@H]1CCCN1C(=O)[C@H](C)N)[C@@H](C)O)C(C)C)C(=O)N[C@@H](CCCCN)C(=O)N1CCC[C@H]1C(=O)N[C@@H](Cc1c[nH]cn1)C(=O)N[C@@H](CCCNC(=N)N)C(=O)N[C@@H](Cc1ccc(O)cc1)C(=O)O [H3K36me1],Kd,[2],5100 ± 1900 µM
E53A: HRP3 PWWP mutant E53A,fold loss of binding affinity for the H3K36me3 peptide,[3],5.7 fold
F48A: HRP3 PWWP aromatic cage mutant,fold loss of binding affinity for the H3K36me3 peptide,[3],6.7 fold
"K18A: DNA binding mutant of human HRP3, GFP fusion",chromatin binding,[4],dramatically reduced the chromatin binding
"KNR-A: HRP3 K18A/N76A/R78A mutant, GFP fusion",chromatin binding,[4],dramatically reduced the chromatin binding
same,chromatin binding / recruitment by ChIP-Seq,[5],strong reduction in chromatin binding
"KYNR-A: HRP3 K18A/Y22A/N76A/R78A mutant, GFP fusion",chromatin binding,[4],dramatically reduced the chromatin binding
same,chromatin binding / recruitment by ChIP-Seq,[5],strong reduction in chromatin binding
Y22A: HRP3 PWWP aromatic cage mutant,chromatin binding,[4],"but not the H3K36me3 binding amino acids (Y22A) alone, dramatically reduced the chromatin binding"
same,fold loss of binding affinity for the H3K36me3 peptide,[3],15 fold
same,chromatin binding / recruitment by ChIP-Seq,[5],weaker consequences
B1,Kd,[6],3.2 µM
B2,Kd,[7],2100 µM
B3,fold loss of binding affinity against wild type,[8],15 fold
same,Kd,[7],1300 µM
same,fold decrease of binding against wild type,[9],5.7 fold
same,fold loss of binding affinity against wild type,[10],6.7 fold
B4,binding signal,[11],5.7 fold loss vs WT
same,Kd,[6]; self-complementary,2.8 µM
B5,binding result,[12],binds
same,binding signal,[11],58 fold loss vs WT
same,Kd,[6]; self-complementary,1.3 µM
